Here are results for 17 compounds from US9783527B2, “Indazole ureas and method of use” (AbbVie Inc., priority 2014, dated 2017).

The subject of experiment [1] is spinal nerve ligation-induced neuropathic pain in rats. The experiment in a line: Rat spinal nerve ligation (SNL) model of neuropathic pain, von Frey paw withdrawal threshold. The format is in vivo. Particulars: SNL dose 100 mg/kg; male Sprague Dawley rats, mechanical sensitivity (von Frey). The text has this: Rat Spinal Nerve Ligation (SNL) Model of Neuropathic Pain.
A model of spinal nerve ligation-induced (SNL model) neuropathic pain as originally described by Kim and Chung (Kim, S. H. and J. M. Chung, 1992, Pain 50, 355) was used to test a compound of the present application. The male Sprague Dawley rats (Charles River Laboratories, Wilmington, Mass.), weighing 150-175 g at the time of surgery, were placed under isoflurane anesthesia and a 1.5 cm incision was made dorsal to the lumbosacral plexus. The paraspinal muscles (left side) were separated from the spinous processes, the left L5 and L6 spinal nerves isolated, and tightly ligated with 5-0 silk suture distal to the dorsal root ganglion. Care was taken to avoid ligating the L4 spinal nerve. Following spinal nerve ligation, a minimum of 7 days of recovery and no more than 3 weeks was allowed prior to the behavioral testing (mechanical sensitivity). Only rats with threshold scores ≦4.5 g were considered allodynic and utilized in pharmacological experiments.
Mechanical sensitivity was measured using calibrated von Frey filaments (Stoelting, Wood Dale, Ill.). Paw withdrawal threshold (PWT) was determined by using the Dixon's up-down method (Dixon, W. J., 1980, Ann. Rev. Pharmacol. Toxicol., 20, 441). Rats were placed into inverted individual plastic containers (20×12.5×20 cm) on top of a suspended wire mesh with a 1 cm^2 grid to provide access to the ventral side of the hind paws, and acclimated to the test chambers for 20 minutes. The von Frey filaments were presented perpendicularly to the plantar surface of the selected hind paw, and then held in this position for approximately 8 seconds with enough force to cause a slight bend in the filament. Positive responses included an abrupt withdrawal of the hind paw from the stimulus, or flinching behavior immediately following removal of the stimulus. A 50% withdrawal threshold was determined using an up-down procedure (Dixon, 1980). A percent maximal possible effect (% MPE) of testing compound was calculated according to the formula: (Log [compound-treated threshold]−Log [vehicle-treated threshold])/(Log [maximum threshold]−Log [vehicle-treated threshold])×100%, where the maximum threshold was equal to 15 g.
The animals were housed in Association for Assessment and Accreditation of Laboratory Animal Care (AAALAC) approved facilities at AbbVie Inc. in a temperature-regulated environment under a controlled 12-hour light-dark cycle, with lights on at 6:00 a.m. Food and water were available ad libitum at all times except during testing. All testing was done following procedures outlined in protocols approved by AbbVie Inc.s' Institutional Animal Care and Use Committee.

The next experiment has as its target human Nav1.7 (Homo sapiens (Human), UniProt Q15858). Kind of experiment: FRET-based membrane potential assay, recombinant human sodium channel Nav1.7. The class given is cell-based. Conditions: HEK293 cells stably expressing recombinant human Nav1.7; depolarization with veratridine (EC80) + scorpion venom. A digest of the protocol:
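IC50 derived by four-parameter Hill fit of percent inhibition of depolarization, measured as peak F440-480/F565-625 ratio over baseline. Stable human Nav1.7 HEK293 cells, dye-loaded with CC2-DMPE and DiSBAC2(3)/VABSC-1 at room temperature, received compound 3 min ahead of veratridine (EC80) plus scorpion venom.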

Another experiment addresses human Nav1.8 (Homo sapiens (Human), UniProt Q9Y5Y9). The experiment in a line: FRET-based membrane potential assay, recombinant human sodium channel Nav1.8. The class given is cell-based. Conditions: HEK293 cells stably expressing recombinant human Nav1.8; depolarization with veratridine (EC80) + scorpion venom. The method, boiled down:
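HEK293 cells stably expressing Nav1.8 were loaded with CC2-DMPE/DiSBAC2(3) FRET voltage dyes. Compounds were added 3 min before depolarization with EC80 veratridine plus scorpion venom. The F440-480/F565-625 ratio was read on FLIPR; IC50 came from four-parameter Hill fits.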

For experiment [2], the system named is MIA-induced osteoarthritic pain in rats. The experiment in a line: Osteoarthritic (OA) pain induced by sodium monoiodoacetate (MIA), hind limb grip force. The class given is in vivo, rat. Conditions: male Sprague Dawley rats, grip force 20 days after MIA injection. How it is done:
Osteoarthritic (OA) Pain Induced by Sodium Monoiodoacetate (MIA)
Pain behavior was assessed by measurement of hind limb grip force (GF) in adult osteoarthritic rats. Male Sprague Dawley rats, obtained from Charles River Laboratories, (Wilmington, Mass.), weighing 150-175 g, were injected in the unilateral knee join with a single intra-articular injection of sodium monoiodoacetate (MIA, 3 mg/rat). All rats were tested at 20 days following MIA injection. A behavioral measure of activity-induced pain was carried out. Measurements of the peak hind limb grip force were conducted by recording the maximum compressive force (CFmax), in grams of force, exerted on a hind limb strain gauge setup, in a commercially available grip force measurement system (Columbus Instruments, Columbus, Ohio).
During testing, each rat was gently restrained by grasping it around its rib cage and then allowed to grasp the wire mesh frame attached to the strain gauge. The experimenter then moved the animal in a rostral-to-caudal direction until the grip was broken. Each rat was sequentially tested twice at an approximately 2-3 minute interval to obtain a raw mean grip force (CFmax). This raw mean grip force data was in turn converted to a maximum hindlimb cumulative compressive force (CFmax), as the grams of force/kg of body weight, for each animal.
For evaluating the compound effects, the hind limb grip force was conducted 20 days following the intra-articular injection of MIA. A group of age-matched nave (not injected with MIA) animals was added as a comparator to the drug-dosed groups. The vehicle control response for each group of MIA-treated animals was defined as the 0% response (0% effect), whereas the nave control group was defined as the normal response and as 100% effect. The % effect for each dose group was expressed as % return of response to normalcy, compared to the nave group. A percent maximal possible effect (% MPE) of testing compound was calculated according to the formula: (Treatment CFmax−Vehicle CFmax)/Vehicle CFmax]×100). Higher % effect numbers indicate increased relief from the pain in the model, with 100% indicating a return to the level of response seen in normal (non-osteoarthritic) animals. All experiments evaluating drug effects in this model were conducted in a randomized blinded fashion.
The animals were housed in Association for Assessment and Accreditation of Laboratory Animal Care (AAALAC) approved facilities at AbbVie Inc. in a temperature-regulated environment under a controlled 12-hour light-dark cycle, with lights on at 6:00 a.m. Food and water were available ad libitum at all times except during testing. All testing was done following procedures outlined in protocols approved by AbbVie Inc.'s Institutional Animal Care and Use Committee.

Chain of human Nav1.7 (Q15858 whole entry): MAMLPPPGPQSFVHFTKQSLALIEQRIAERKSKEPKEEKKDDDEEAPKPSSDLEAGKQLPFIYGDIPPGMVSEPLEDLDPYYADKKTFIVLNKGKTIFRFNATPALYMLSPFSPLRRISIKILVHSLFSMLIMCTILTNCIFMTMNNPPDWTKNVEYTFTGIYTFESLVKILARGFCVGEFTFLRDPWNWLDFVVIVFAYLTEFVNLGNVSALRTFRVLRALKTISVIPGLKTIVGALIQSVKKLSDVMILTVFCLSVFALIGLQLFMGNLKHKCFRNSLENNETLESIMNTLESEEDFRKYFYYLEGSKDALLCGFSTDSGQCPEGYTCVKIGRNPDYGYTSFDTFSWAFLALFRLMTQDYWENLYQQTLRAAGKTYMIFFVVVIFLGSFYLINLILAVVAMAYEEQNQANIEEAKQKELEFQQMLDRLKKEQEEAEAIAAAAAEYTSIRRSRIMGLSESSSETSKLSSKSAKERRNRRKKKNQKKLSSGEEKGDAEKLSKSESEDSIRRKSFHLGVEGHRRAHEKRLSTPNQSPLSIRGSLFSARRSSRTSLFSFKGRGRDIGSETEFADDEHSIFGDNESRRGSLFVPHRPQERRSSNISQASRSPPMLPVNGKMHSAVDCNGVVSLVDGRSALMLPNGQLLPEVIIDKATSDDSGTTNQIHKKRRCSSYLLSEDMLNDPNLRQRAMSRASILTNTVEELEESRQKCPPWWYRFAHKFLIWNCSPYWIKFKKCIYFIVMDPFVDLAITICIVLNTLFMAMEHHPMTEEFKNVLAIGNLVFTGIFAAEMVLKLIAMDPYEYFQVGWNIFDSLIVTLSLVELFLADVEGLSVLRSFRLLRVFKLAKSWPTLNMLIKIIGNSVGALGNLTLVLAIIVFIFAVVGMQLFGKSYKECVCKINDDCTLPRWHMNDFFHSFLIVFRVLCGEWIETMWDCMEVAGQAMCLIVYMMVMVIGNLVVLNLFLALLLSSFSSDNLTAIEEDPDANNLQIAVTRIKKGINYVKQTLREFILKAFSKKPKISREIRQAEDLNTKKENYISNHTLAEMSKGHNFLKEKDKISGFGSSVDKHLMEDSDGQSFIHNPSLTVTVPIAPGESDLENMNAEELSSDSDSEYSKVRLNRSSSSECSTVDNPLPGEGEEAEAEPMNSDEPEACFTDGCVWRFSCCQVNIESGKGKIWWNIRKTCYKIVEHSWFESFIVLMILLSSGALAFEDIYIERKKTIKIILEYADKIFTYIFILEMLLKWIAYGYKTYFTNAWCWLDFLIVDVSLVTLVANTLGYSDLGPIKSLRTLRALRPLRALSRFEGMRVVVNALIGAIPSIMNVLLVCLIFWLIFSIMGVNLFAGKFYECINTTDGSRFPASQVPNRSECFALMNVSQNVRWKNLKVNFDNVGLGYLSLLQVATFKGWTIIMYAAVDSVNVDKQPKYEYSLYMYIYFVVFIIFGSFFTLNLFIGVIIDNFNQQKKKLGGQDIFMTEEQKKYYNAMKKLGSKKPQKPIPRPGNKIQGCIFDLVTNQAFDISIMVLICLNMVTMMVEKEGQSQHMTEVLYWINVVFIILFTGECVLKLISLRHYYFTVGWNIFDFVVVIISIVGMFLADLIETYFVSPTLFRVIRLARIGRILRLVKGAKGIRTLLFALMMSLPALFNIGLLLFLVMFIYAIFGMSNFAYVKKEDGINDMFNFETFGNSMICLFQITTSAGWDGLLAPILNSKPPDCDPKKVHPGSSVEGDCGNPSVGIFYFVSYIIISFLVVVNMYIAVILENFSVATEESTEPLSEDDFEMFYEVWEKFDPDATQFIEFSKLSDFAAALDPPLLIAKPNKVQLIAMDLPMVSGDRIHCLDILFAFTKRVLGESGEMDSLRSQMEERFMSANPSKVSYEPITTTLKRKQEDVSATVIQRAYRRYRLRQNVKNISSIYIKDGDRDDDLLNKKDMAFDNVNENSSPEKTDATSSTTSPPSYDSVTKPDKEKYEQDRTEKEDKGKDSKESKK
Chain of human Nav1.8 (Q9Y5Y9 whole entry): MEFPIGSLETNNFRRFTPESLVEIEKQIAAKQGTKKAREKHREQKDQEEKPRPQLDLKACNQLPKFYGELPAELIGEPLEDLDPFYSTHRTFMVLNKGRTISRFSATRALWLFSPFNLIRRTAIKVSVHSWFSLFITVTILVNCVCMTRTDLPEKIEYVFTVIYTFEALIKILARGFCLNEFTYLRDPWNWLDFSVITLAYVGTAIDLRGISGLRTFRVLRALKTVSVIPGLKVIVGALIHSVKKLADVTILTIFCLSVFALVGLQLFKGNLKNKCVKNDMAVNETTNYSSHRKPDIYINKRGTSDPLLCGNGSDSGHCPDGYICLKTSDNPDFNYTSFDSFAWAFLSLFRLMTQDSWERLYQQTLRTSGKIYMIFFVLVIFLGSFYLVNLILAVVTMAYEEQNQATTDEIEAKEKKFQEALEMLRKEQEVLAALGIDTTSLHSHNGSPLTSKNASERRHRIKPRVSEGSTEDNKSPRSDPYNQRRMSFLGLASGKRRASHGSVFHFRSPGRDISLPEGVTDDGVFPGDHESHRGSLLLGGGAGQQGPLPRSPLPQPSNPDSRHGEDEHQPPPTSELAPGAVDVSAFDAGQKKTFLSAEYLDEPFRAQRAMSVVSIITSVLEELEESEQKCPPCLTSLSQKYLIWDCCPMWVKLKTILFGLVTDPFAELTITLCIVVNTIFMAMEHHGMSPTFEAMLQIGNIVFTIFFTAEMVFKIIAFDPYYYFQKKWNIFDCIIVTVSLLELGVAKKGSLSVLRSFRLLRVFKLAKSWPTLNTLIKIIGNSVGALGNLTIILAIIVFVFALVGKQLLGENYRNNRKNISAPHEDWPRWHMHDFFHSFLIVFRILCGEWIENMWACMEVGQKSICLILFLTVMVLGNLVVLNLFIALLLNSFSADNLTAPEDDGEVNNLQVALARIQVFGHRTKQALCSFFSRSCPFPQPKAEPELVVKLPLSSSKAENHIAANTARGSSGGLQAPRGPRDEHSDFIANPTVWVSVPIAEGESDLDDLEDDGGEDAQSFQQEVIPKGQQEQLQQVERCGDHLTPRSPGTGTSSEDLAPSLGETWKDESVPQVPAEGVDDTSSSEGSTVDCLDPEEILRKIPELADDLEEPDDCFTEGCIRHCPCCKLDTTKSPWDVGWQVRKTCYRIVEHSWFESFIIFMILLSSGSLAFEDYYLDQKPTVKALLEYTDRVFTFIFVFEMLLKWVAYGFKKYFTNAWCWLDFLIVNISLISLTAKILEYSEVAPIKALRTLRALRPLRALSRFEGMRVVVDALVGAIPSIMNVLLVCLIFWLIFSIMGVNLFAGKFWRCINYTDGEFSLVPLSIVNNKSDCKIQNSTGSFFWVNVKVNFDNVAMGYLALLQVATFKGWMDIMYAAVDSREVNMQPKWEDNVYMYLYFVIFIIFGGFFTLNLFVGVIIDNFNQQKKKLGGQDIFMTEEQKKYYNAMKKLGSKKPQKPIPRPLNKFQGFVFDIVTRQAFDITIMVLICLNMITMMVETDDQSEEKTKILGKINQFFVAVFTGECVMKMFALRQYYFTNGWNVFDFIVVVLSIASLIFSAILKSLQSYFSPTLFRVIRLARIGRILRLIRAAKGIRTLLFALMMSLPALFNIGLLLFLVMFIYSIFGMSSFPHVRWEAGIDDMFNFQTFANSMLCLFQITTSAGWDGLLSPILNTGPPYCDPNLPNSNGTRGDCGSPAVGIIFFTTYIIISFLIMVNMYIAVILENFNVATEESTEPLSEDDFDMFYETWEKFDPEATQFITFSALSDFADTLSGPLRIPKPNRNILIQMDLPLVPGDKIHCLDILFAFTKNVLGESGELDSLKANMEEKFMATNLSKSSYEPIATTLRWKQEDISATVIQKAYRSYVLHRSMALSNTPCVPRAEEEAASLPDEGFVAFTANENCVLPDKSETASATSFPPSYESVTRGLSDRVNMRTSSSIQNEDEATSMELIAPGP

For the compound `CC(C)(C)OC(=O)N1CCN(c2cccc3c2cnn3-c2ccccc2F)C1=O` [Example 2, tert-butyl 3-[1-(2-fluorophenyl)-1H-indazol-4-yl]-2-oxoimidazolidine-1-carboxylate], in experiment [1], the “SNL MPE (%)” value stood at 38%.
With `NC(=O)CN1CCN(c2cccc3c2cnn3-c2ccccc2F)C1=O` [Example 3, 2-{3-[1-(2-fluorophenyl)-1H-indazol-4-yl]-2-oxoimidazolidin-1-yl}acetamide], the “SNL MPE (%)” value in experiment [1] is recorded as 30%.
For orientation: IC50 means the concentration that gives 50% inhibition. In the case of `CC(C)OC(=O)N1CCN(c2cccc3c2cnn3-c2ccccc2F)C1=O` [Example 4, isopropyl 3-[1-(2-fluorophenyl)-1H-indazol-4-yl]-2-oxoimidazolidine-1-carboxylate], the IC50 at human Nav1.7 is 0.223 µM; on human Nav1.8, 0.23 µM. The “SNL MPE (%)” value in experiment [1] was 68%.
Take `O=C1N(CC(=O)N2C[C@H]3C[C@@H]2CO3)CCN1c1cccc2c1cnn2-c1ccccc1F` [Example 25, 1-[1-(2-fluorophenyl)-1H-indazol-4-yl]-3-{2-[(1R,4R)-2-oxa-5-azabicyclo[2.2.1]hept-5-yl]-2-oxoethyl}imidazolidin-2-one]: the IC50 on human Nav1.7 is 0.499 µM; on human Nav1.8, 8.51 µM. Moreover, the “OA MPE (%)” value in experiment [2] (OA dose 10 mg/kg) amounted to 24%.
Regarding `O=C1N(c2cccc3c2cnn3-c2ccccc2F)CCN1[C@@H]1CCOC1` [Example 32, 1-[1-(2-fluorophenyl)-1H-indazol-4-yl]-3-[(3R)-tetrahydrofuran-3-yl]imidazolidin-2-one], the values for the IC50 at human Nav1.7 and at human Nav1.8 were 4.23 µM and 2.54 µM, respectively. In addition, the “OA MPE (%)” value in experiment [2] (OA dose 30 mg/kg) is recorded as 65%.
For `CCc1cc(CN2CCN(c3cccc4c3cnn4-c3ccccc3F)C2=O)on1` [Example 45, 1-[(3-ethyl-1,2-oxazol-5-yl)methyl]-3-[1-(2-fluorophenyl)-1H-indazol-4-yl]imidazolidin-2-one], the IC50 on human Nav1.7 was determined as 1.12 µM. The “OA MPE (%)” value in experiment [2] (OA dose 10 mg/kg) was 43%.
For the compound `CCOc1nnc(CN2CCN(c3cccc4c3cnn4-c3ccccc3F)C2=O)s1` [Example 47, 1-[(5-ethoxy-1,3,4-thiadiazol-2-yl)methyl]-3-[1-(2-fluorophenyl)-1H-indazol-4-yl]imidazolidin-2-one], the IC50 at human Nav1.7 was found to be 1.49 µM; at human Nav1.8, 3.98 µM. For the same compound, in experiment [2] (OA dose 10 mg/kg), the “OA MPE (%)” value stood at 19%.
Taken in the same sequence, the figures for `Cc1nc(CN2CCCN(c3cccc4c3cnn4-c3ccccc3F)C2=O)oc1C` [Example 48, 1-[(4,5-dimethyl-1,3-oxazol-2-yl)methyl]-3-[1-(2-fluorophenyl)-1H-indazol-4-yl]tetrahydropyrimidin-2(1H)-one] were 2.01 µM, 1.14 µM and 20%.
For the compound `O=C1N(Cc2nnc(C3CC3)o2)CCN1c1cccc2c1cnn2-c1ccccc1F` [Example 49, 1-[(5-cyclopropyl-1,3,4-oxadiazol-2-yl)methyl]-3-[1-(2-fluorophenyl)-1H-indazol-4-yl]imidazolidin-2-one], the IC50 on human Nav1.7 is 2.32 µM; on human Nav1.8, 0.538 µM. Moreover, the “OA MPE (%)” value in experiment [2] (OA dose 10 mg/kg) was 66%.
Consider `O=C1N(Cc2nnc(C3CCC3)o2)CCN1c1cccc2c1cnn2-c1ccccc1F` [Example 50, 1-[(5-cyclobutyl-1,3,4-oxadiazol-2-yl)methyl]-3-[1-(2-fluorophenyl)-1H-indazol-4-yl]imidazolidin-2-one], for which the IC50 at human Nav1.7 was found to be 1.53 µM; on human Nav1.8 it was 3.08 µM. Besides, in experiment [2] (OA dose 10 mg/kg), the “OA MPE (%)” value is reported as 7%.
As for `CCS(=O)(=O)N1CC(N2CCN(c3cccc4c3cnn4-c3ccccc3F)C2=O)C1` [Example 51, 1-[1-(ethylsulfonyl)azetidin-3-yl]-3-[1-(2-fluorophenyl)-1H-indazol-4-yl]imidazolidin-2-one], the IC50 is 3.1 µM at human Nav1.7 and 1.14 µM on human Nav1.8. The “OA MPE (%)” value in experiment [2] (OA dose 30 mg/kg) is on record as 16%.
The matching figures for `O=C(CN1CCN(c2cccc3c2cnn3-c2ccccc2F)C1=O)N1CCC[C@@H](O)C1` [Example 52, 1-[1-(2-fluorophenyl)-1H-indazol-4-yl]-3-{2-[(3R)-3-hydroxypiperidin-1-yl]-2-oxoethyl}imidazolidin-2-one]: 2.49 µM, 10.1 µM and 27%.
Turning to `Cc1cccc(-n2ncc3c(N4CCN(CC(=O)N5CC[C@H](F)C5)C4=O)cccc32)c1` [Example 56, 1-{2-[(3S)-3-fluoropyrrolidin-1-yl]-2-oxoethyl}-3-[1-(3-methylphenyl)-1H-indazol-4-yl]imidazolidin-2-one], the IC50 at human Nav1.7 turned out to be 1.83 µM; at human Nav1.8 it was 4.63 µM. Further, the “OA MPE (%)” value in experiment [2] (OA dose 30 mg/kg) was determined as 70%.
The matching figures for `CCC1(O)CN(C(=O)CN2CCN(c3cccc4c3cnn4-c3ccccc3F)C2=O)C1` [Example 205, 1-[2-(3-ethyl-3-hydroxyazetidin-1-yl)-2-oxoethyl]-3-[1-(2-fluorophenyl)-1H-indazol-4-yl]imidazolidin-2-one]: 0.778 µM, 1.5 µM and 46%.
On to `O=C(CN1CCN(c2cccc3c2cnn3-c2ccccc2)C1=O)N1CC[C@H](F)C1` [Example 307, 1-{2-[(3S)-3-fluoropyrrolidin-1-yl]-2-oxoethyl}-3-(1-phenyl-1H-indazol-4-yl)imidazolidin-2-one], for which the IC50 was determined as 0.52 µM at human Nav1.7 and 1.42 µM on human Nav1.8. Further, in experiment [2] (OA dose 30 mg/kg), the “OA MPE (%)” value is listed as 62%.
Taken in the same sequence, the figures for `O=C(CN1CCN(c2cccc3c2cnn3-c2ccccc2F)C1=O)NC1(CO)CCC1` [Example 316, 2-{3-[1-(2-fluorophenyl)-1H-indazol-4-yl]-2-oxoimidazolidin-1-yl}-N-[1-(hydroxymethyl)cyclobutyl]acetamide] were 3.11 µM, 1.65 µM and 63%.
The matching figures for `CC1(NC(=O)CN2CCN(c3cccc4c3cnn4-c3ccccc3F)C2=O)CC1` [Example 333, 2-{3-[1-(2-fluorophenyl)-1H-indazol-4-yl]-2-oxoimidazolidin-1-yl}-N-(1-methylcyclopropyl)acetamide]: 2.41 µM, 4.76 µM and 86%.
